These results are taken from ChEMBL document CHEMBL5058564, “EUbOPEN Chemogenomics Library 2 (Incucyte)” (2022).

Format in all cases: toxicity, cell-based
The test system of one data set is U2OS. In words: Incucyte cell viability with U2OS. The settings on record: human, 10 µM, compound concentration 10 uM.
For another data set, the system named is Fibroblast. In words: Incucyte cell viability with human fibroblast. The settings on record: 10 µM, compound concentration 10 uM.
The subject of the next data set is HEK-293T. As to the kind of experiment: Incucyte cell viability with HEK293T. The settings on record: human, 10 µM, compound concentration 10 uM.
The mark [1] stands for this setting: 0 h, replicate number 1, timepoint 0 hours.
[2] abbreviates: 0 h, replicate number 2, timepoint 0 hours.
Where [3] appears, read: 6 h, replicate number 1, timepoint 6 hours.
The mark [4] stands for this setting: 12 h, replicate number 1, timepoint 12 hours.
The mark [5] stands for this setting: 12 h, replicate number 2, timepoint 12 hours.
Setting [6] is: 18 h, replicate number 1, timepoint 18 hours.
[7] abbreviates: 24 h, replicate number 1, timepoint 24 hours.
[8] abbreviates: 6 h, replicate number 2, timepoint 6 hours.
The mark [9] stands for this setting: 18 h, replicate number 2, timepoint 18 hours.
The mark [10] stands for this setting: 24 h, replicate number 2, timepoint 24 hours.
Note: unitless GR value; below 1 slowed growth and below 0 cell loss.

Regarding `CCN1C(=CC(C)=O)Sc2ccc(OC)cc21`, the “Growth Rate” value in the data set on U2OS (setting [1]) is on record as -0.04; with U2OS (setting [2]), -0.03; in the data set on U2OS (setting [3]), 0.65; in the data set on U2OS (setting [4]) it was 0.7; in the data set with U2OS (setting [5]), 0.88; in the data set with U2OS (setting [6]) it was 0.63. For the same molecule, the “Growth Rate” value in the data set with U2OS (setting [7]) was 0.89; in the data set on Fibroblast (setting [2]) it was 0.29; with Fibroblast (setting [3]) it was -0.68; with Fibroblast (setting [4]), 0.45; in the data set on Fibroblast (setting [6]), 0.69; with Fibroblast (setting [7]) it was 0.7. The “Growth Rate” value in the data set on HEK-293T (setting [2]) is listed as -1; with HEK-293T (setting [3]), 0.17; with HEK-293T (setting [4]) it was 0.45; in the data set with HEK-293T (setting [6]) it was 0.69; with HEK-293T (setting [7]), 0.72.
Consider `NC(=O)c1cc2c(-c3ccc(C(=O)NCc4ccnc(Cl)c4)s3)cccc2s1`, for which the “Growth Rate” value in the data set with U2OS (setting [2]) was -0.83; in the data set on U2OS (setting [3]) it was -0.27; in the data set with U2OS (setting [8]) it was 0.04; in the data set on U2OS (setting [4]) it was -0.23; in the data set with U2OS (setting [5]), 0.03; in the data set with U2OS (setting [6]) it was 0.07. Further, the “Growth Rate” value in the data set on U2OS (setting [9]) was 0; in the data set with U2OS (setting [7]), -0.11; in the data set on U2OS (setting [10]) it was -0.08; with Fibroblast (setting [3]) it was -0.81; in the data set on Fibroblast (setting [8]), -0.97; with Fibroblast (setting [4]) it was -0.77. Besides, the “Growth Rate” value in the data set on Fibroblast (setting [5]) is listed as -0.62; with Fibroblast (setting [6]), -0.53; with Fibroblast (setting [9]), -0.15; with Fibroblast (setting [7]), -0.39; with Fibroblast (setting [10]), 0.32; with HEK-293T (setting [3]) it was -0.01. Moreover, the “Growth Rate” value in the data set on HEK-293T (setting [8]) is given as 0.1; in the data set with HEK-293T (setting [4]), -0.09; in the data set with HEK-293T (setting [5]), 0.13; in the data set on HEK-293T (setting [6]), -0.18; in the data set with HEK-293T (setting [9]) it was -0.06; in the data set on HEK-293T (setting [7]), -0.15. Further, the “Growth Rate” value in the data set with HEK-293T (setting [10]) is listed as 0.01.
With `O=C(O)c1ccccc1S(=O)(=O)NCCCCN1C(=O)c2cccc3cccc(c23)C1=O`, the “Growth Rate” value with U2OS (setting [1]) is 0.34; with U2OS (setting [2]) it was -0.33; in the data set on U2OS (setting [3]), 0.57; with U2OS (setting [8]) it was 0.12; in the data set on U2OS (setting [4]), 0.82; in the data set with U2OS (setting [5]), 0.64. The “Growth Rate” value in the data set with U2OS (setting [6]) was determined as 0.78; in the data set on U2OS (setting [9]), 0.75; with U2OS (setting [7]), 0.67; with U2OS (setting [10]), 0.75; with Fibroblast (setting [1]), 0.28; with Fibroblast (setting [2]), 0.58. The “Growth Rate” value with Fibroblast (setting [8]) is 0.71; with Fibroblast (setting [5]), 0.94; in the data set with Fibroblast (setting [6]), 0.79; with HEK-293T (setting [1]) it was 0.54; in the data set on HEK-293T (setting [2]), 0.31; with HEK-293T (setting [4]), 0.9. In addition, the “Growth Rate” value in the data set with HEK-293T (setting [5]) is recorded as 0.98; with HEK-293T (setting [6]) it was 0.82; in the data set on HEK-293T (setting [9]) it was 0.89; in the data set with HEK-293T (setting [7]) it was 0.91.
With `CN(C)CCN(Cc1ccc(-c2ccc(CNCCc3ccccc3)cc2)cc1)C(=O)CCC1CCCC1.Cl.Cl`, the “Growth Rate” value is -1 with U2OS (setting [3]); -0.96 in the data set on U2OS (setting [8]); -0.99 in the data set on U2OS (setting [4]); -0.81 with U2OS (setting [5]); -0.92 with U2OS (setting [6]); -0.64 in the data set with U2OS (setting [9]). The “Growth Rate” value in the data set with U2OS (setting [7]) is recorded as -0.86; in the data set with U2OS (setting [10]) it was -0.58; with Fibroblast (setting [3]), -1; in the data set on Fibroblast (setting [4]), -0.99; with Fibroblast (setting [6]), -0.96; in the data set with Fibroblast (setting [9]) it was -0.99. The “Growth Rate” value in the data set on Fibroblast (setting [7]) was -0.93; with Fibroblast (setting [10]) it was -0.98; with HEK-293T (setting [3]) it was -0.93; in the data set with HEK-293T (setting [8]), -0.92; with HEK-293T (setting [4]) it was -0.74; in the data set on HEK-293T (setting [5]), -0.78. The “Growth Rate” value in the data set on HEK-293T (setting [6]) is -0.55; in the data set on HEK-293T (setting [9]) it was -0.67; in the data set with HEK-293T (setting [7]) it was -0.46; with HEK-293T (setting [10]), -0.59.
Consider `OCCCNc1cc(-c2ccnc(Nc3cccc(Cl)c3)n2)ccn1`, for which the “Growth Rate” value in the data set on U2OS (setting [1]) is -0.27; in the data set on U2OS (setting [2]), -0.28; with U2OS (setting [3]) it was 0.44; with U2OS (setting [4]), 0.44; in the data set on U2OS (setting [5]), 0.56; with U2OS (setting [6]) it was 0.26. Further, the “Growth Rate” value is listed as 0.36 in the data set on U2OS (setting [9]); 0.23 in the data set with U2OS (setting [7]); 0.24 with U2OS (setting [10]); -0.42 in the data set on Fibroblast (setting [1]); -0.55 with Fibroblast (setting [2]); -0.19 with Fibroblast (setting [3]). Moreover, the “Growth Rate” value in the data set on Fibroblast (setting [8]) was 0.11; in the data set with Fibroblast (setting [4]), -0.15; in the data set with Fibroblast (setting [5]), -0.06; in the data set with Fibroblast (setting [6]) it was -0.2; with Fibroblast (setting [9]), -0.09; in the data set with Fibroblast (setting [7]) it was -0.02. Further, the “Growth Rate” value was -0.06 in the data set with Fibroblast (setting [10]); -0.65 in the data set on HEK-293T (setting [3]); -0.7 in the data set with HEK-293T (setting [8]); -0.52 with HEK-293T (setting [4]); -0.62 in the data set with HEK-293T (setting [5]); -0.38 with HEK-293T (setting [6]). Besides, the “Growth Rate” value in the data set on HEK-293T (setting [9]) is reported as -0.46; in the data set with HEK-293T (setting [7]), -0.29; with HEK-293T (setting [10]), -0.38.
As to `O=c1ccn([C@@H]2O[C@H](COP(=O)([O-])OP(=O)([O-])OP(=O)([O-])OP(=O)([O-])OC[C@H]3O[C@@H](n4ccc(=O)[nH]c4=O)[C@H](O)[C@@H]3O)[C@@H](O)[C@H]2O)c(=O)[nH]1.[Na+].[Na+].[Na+].[Na+]` [DIQUAFOSOL TETRASODIUM], the “Growth Rate” value is recorded as -0.05 with U2OS (setting [1]); 0.17 with U2OS (setting [3]); 0.47 with U2OS (setting [4]); 0.88 in the data set with U2OS (setting [6]); 0.92 with U2OS (setting [9]); 0.93 with U2OS (setting [7]). For the same molecule, the “Growth Rate” value in the data set with Fibroblast (setting [1]) is 0.39; with Fibroblast (setting [8]), 0.61; in the data set on Fibroblast (setting [7]), 0.89; in the data set with HEK-293T (setting [1]), 0.43; in the data set with HEK-293T (setting [2]), 0.4; with HEK-293T (setting [3]), 0.69. For the same molecule, the “Growth Rate” value with HEK-293T (setting [8]) was 0.63; with HEK-293T (setting [4]) it was 0.73; in the data set with HEK-293T (setting [6]) it was 0.72; with HEK-293T (setting [7]), 0.85; in the data set with HEK-293T (setting [10]), 0.81.
With `CCc1nc2c(C)cc(C)nc2[nH]1`, the “Growth Rate” value in the data set with U2OS (setting [3]) came to 0.2; in the data set with U2OS (setting [4]), 0.62; in the data set with U2OS (setting [6]) it was 0.7; in the data set with U2OS (setting [9]), 0.93; in the data set with U2OS (setting [10]), 0.96; in the data set on Fibroblast (setting [1]) it was 0.65. Also, the “Growth Rate” value in the data set on Fibroblast (setting [8]) was found to be 0.58; in the data set with Fibroblast (setting [5]) it was 0.69; in the data set with Fibroblast (setting [9]), 0.92; in the data set on HEK-293T (setting [9]), 0.89.
Regarding `OCc1cc(C(O)CNCCCCCCOCCCCc2ccccc2)ccc1O` (stereo unspecified) [SALMETEROL], the “Growth Rate” value amounted to 0.56 with U2OS (setting [3]); 0.56 in the data set on U2OS (setting [4]); 0.98 in the data set with U2OS (setting [5]); 0.81 with U2OS (setting [6]); 0.95 in the data set on U2OS (setting [7]); 0.1 with Fibroblast (setting [1]). In addition, the “Growth Rate” value in the data set on Fibroblast (setting [2]) is listed as 0.63; in the data set on Fibroblast (setting [5]) it was 0.59; with Fibroblast (setting [9]) it was 0.72; with HEK-293T (setting [3]) it was 0.2; with HEK-293T (setting [8]), 0.28; with HEK-293T (setting [4]), 0.7. In addition, the “Growth Rate” value is listed as 0.57 in the data set on HEK-293T (setting [5]); 0.75 in the data set on HEK-293T (setting [6]); 0.72 with HEK-293T (setting [9]); 0.7 with HEK-293T (setting [7]); 0.71 in the data set with HEK-293T (setting [10]).
As to `CC(C)C[C@H](CO)Nc1nc(S[C@@H](C)c2ccccc2)nc2nc(N)sc12` [AZD-8797], the “Growth Rate” value in the data set with U2OS (setting [2]) was -1; with U2OS (setting [4]) it was 0.93; in the data set on U2OS (setting [5]), 0.82; in the data set on U2OS (setting [9]), 0.7; in the data set on U2OS (setting [10]) it was 0.79; with Fibroblast (setting [1]), 0.26. Further, the “Growth Rate” value in the data set with Fibroblast (setting [3]) was 0.37; with Fibroblast (setting [4]), 0.47; in the data set on Fibroblast (setting [6]), 0.83; in the data set on Fibroblast (setting [7]), 0.54; with HEK-293T (setting [4]) it was 0.77; with HEK-293T (setting [5]), 0.99. Further, the “Growth Rate” value in the data set on HEK-293T (setting [6]) turned out to be 0.82; with HEK-293T (setting [7]), 0.93.
